According to ChEMBL document CHEMBL1131841, “Hydroxyoxazolidines as alpha-aminoacetaldehye equivalents: novel inhibitors of calpain” (Bioorg Med Chem Lett, 1999):
Where a SMILES comes first, the peptide text is derived from it. [ ]: non-standard residue; d: D form. The star is where a group is joined. ξ: configuration not given here. NMeF = CN[C@@H](Cc1ccccc1)C(=O)O; Cbz = O=C(OCc1ccccc1)*; ξV = CC(C)C(N)C(=O)O

Experiments:
[1] = target: T1, Calpain-1 catalytic subunit (Homo sapiens, UniProt P07384); assay: Tested for inhibitory activity against calpain.
T1 sequence (P07384 whole entry): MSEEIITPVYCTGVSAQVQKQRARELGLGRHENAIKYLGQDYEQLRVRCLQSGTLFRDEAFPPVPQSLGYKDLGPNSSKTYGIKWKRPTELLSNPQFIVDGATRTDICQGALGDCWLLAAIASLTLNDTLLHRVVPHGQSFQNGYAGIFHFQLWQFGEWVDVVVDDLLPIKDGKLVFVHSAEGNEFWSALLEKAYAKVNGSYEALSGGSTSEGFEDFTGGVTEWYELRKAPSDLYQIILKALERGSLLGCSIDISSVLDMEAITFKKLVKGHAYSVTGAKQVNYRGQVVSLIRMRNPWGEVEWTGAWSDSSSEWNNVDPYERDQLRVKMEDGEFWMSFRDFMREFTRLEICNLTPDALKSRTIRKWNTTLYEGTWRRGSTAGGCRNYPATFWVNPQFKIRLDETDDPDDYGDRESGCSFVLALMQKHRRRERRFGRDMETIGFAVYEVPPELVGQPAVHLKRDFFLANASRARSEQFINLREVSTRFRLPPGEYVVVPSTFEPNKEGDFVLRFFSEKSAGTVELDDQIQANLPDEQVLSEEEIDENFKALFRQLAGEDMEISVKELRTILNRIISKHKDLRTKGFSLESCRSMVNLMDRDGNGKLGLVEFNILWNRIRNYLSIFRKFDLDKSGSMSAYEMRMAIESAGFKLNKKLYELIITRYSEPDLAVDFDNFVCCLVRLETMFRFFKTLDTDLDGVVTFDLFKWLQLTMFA

[2] = target: T1, Calpain-1 catalytic subunit; assay: Tested for inhibitory activity against calpain; NA means Not active
Cathepsin B = Cathepsin B (Bos taurus, UniProt P07688); assay: Tested for inhibitory activity against bovine cathepsin B.
[3] = target: T1, Calpain-1 catalytic subunit; assay: Tested for inhibitory activity against calpain

Ki [1] | SMILES | other results
33 nM | CC(C)C(NC(=O)OCc1ccccc1)C(=O)N1CO[C@@H](O)[C@@H]1Cc1ccccc1 (stereo not given in full) | Ki (Cathepsin B): 120 nM
400 nM | CC(C)C(NC(=O)OCc1ccccc1)C(=O)N(CO)[C@H](C=O)Cc1ccccc1 (stereo not given in full) | –
400 nM | CC(C)C(NC(=O)OCc1ccccc1)C(=O)N(C)[C@H](C=O)Cc1ccccc1 (stereo not given in full) (Cbz-[ξV]-[NMeF]-aldehyde) | –

Continued, molecule first:

SMILES | Ki [1] | other results
O=C(N[C@H]1CCC[C@H]2O[C@@H](O)[C@H](Cc3ccccc3)N2C1=O)OCc1ccccc1.O=C(N[C@H]1CCC[C@H]2O[C@H](O)[C@@H](Cc3ccccc3)N2C1=O)OCc1ccccc1 | 1500 nM | –
O=C1c2ccccc2C(=O)N1[C@H]1CCC[C@H]2O[C@@H](O)[C@H](Cc3ccccc3)N2C1=O.O=C1c2ccccc2C(=O)N1[C@H]1CCC[C@H]2O[C@H](O)[C@@H](Cc3ccccc3)N2C1=O | 3200 nM | –
CC(C)C(NC(=O)OCc1ccccc1)C(=O)N1C(=O)C[C@H](O)[C@@H]1Cc1ccccc1 (stereo not given in full) | – | Ki [2]: Not Active
CC(C)[C@@H](NC(=O)OCc1ccccc1)C(=O)N1CCO[C@@H](O)[C@@H]1Cc1ccccc1 | 56000 nM | –
CC(C)C(NC(=O)OCc1ccccc1)C(=O)N1CC[C@@H](O)[C@@H]1Cc1ccccc1 (stereo not given in full) | – | Ki [2]: Not Active
CC(=O)O[C@@H]1OCN(C(=O)C(NC(=O)OCc2ccccc2)C(C)C)[C@H]1Cc1ccccc1 (stereo not given in full) | – | Ki [3]: 2000 nM
